Results as given in US10322111B2, “Chemokine receptor binding heterocyclic compounds with enhanced efficacy” (Genzyme Corporation, priority 2001, dated 2019).
Like-named read-outs stand apart in the source and are kept apart here.

Test system: CFU-GM, BFU-E and CFU-GEMM progenitor cells
Conditions: 80 μg/kg s.c.; for % CHG, BFU-E, methylcellulose culture / % CHG, CFU-GEMM, methylcellulose culture / % CHG, CFU-GM, methylcellulose culture / mean fold change compared to T 0, BFU-E, methylcellulose culture, MEAN / mean fold change compared to T 0, CFU-GEMM, methylcellulose culture, MEAN / mean fold change compared to T 0, CFU-GM, methylcellulose culture, MEAN: all five donors

SMILES: c1cc(CN2CCCNCCNCCCNCC2)ccc1CN1CCCNCCNCCCNCC1 [AMD3100, 1,1′-[1,4-phenylene-bis(methylene)]-bis-1,4,8,11-tetraazacyclotetradecane]
- fold change from T=0, progenitors CFU-GM, methylcellulose culture (P3, T = 24 h after injection): 1.43 fold
- Absolute # of Progenitors per ML, BFU-E (P4, T = 1 h after injection): 672 per ML
- Absolute # of Progenitors per ML, CFU-GEMM (P4, T = 1 h after injection): 199 per ML
- Absolute # of Progenitors per ML, CFU-GM (P4, T = 1 h after injection): 947 per ML
- fold change from T=0, progenitors BFU-E, methylcellulose culture (P4, T = 1 h after injection): 1.46 fold
- fold change from T=0, progenitors CFU-GEMM, methylcellulose culture (P4, T = 1 h after injection): 1.96 fold
- fold change from T=0, progenitors CFU-GM, methylcellulose culture (P4, T = 1 h after injection): 6.87 fold
- Absolute # of Progenitors per ML, BFU-E (P4, T = 3 h after injection): 1195 per ML
- Absolute # of Progenitors per ML, CFU-GEMM (P4, T = 3 h after injection): 519 per ML
- Absolute # of Progenitors per ML, CFU-GM (P4, T = 3 h after injection): 2857 per ML
- fold change from T=0, progenitors BFU-E, methylcellulose culture (P4, T = 3 h after injection): 2.60 fold
- fold change from T=0, progenitors CFU-GEMM, methylcellulose culture (P4, T = 3 h after injection): 5.14 fold
- fold change from T=0, progenitors CFU-GM, methylcellulose culture (P4, T = 3 h after injection): 20.72 fold
- Absolute # of Progenitors per ML, BFU-E (P4, T = 6 h after injection): 1533 per ML
- Absolute # of Progenitors per ML, CFU-GEMM (P4, T = 6 h after injection): 920 per ML
- Absolute # of Progenitors per ML, CFU-GM (P4, T = 6 h after injection): 3936 per ML
- fold change from T=0, progenitors BFU-E, methylcellulose culture (P4, T = 6 h after injection): 3.34 fold
- fold change from T=0, progenitors CFU-GEMM, methylcellulose culture (P4, T = 6 h after injection): 9.10 fold
- fold change from T=0, progenitors CFU-GM, methylcellulose culture (P4, T = 6 h after injection): 28.54 fold
- Absolute # of Progenitors per ML, BFU-E (P4, T = 9 h after injection): 1348 per ML
- Absolute # of Progenitors per ML, CFU-GEMM (P4, T = 9 h after injection): 457 per ML
- Absolute # of Progenitors per ML, CFU-GM (P4, T = 9 h after injection): 1942 per ML
- fold change from T=0, progenitors BFU-E, methylcellulose culture (P4, T = 9 h after injection): 2.93 fold
- fold change from T=0, progenitors CFU-GEMM, methylcellulose culture (P4, T = 9 h after injection): 4.52 fold
- fold change from T=0, progenitors CFU-GM, methylcellulose culture (P4, T = 9 h after injection): 14.08 fold
- Absolute # of Progenitors per ML, BFU-E (P4, T = 24 h after injection): 362 per ML
- Absolute # of Progenitors per ML, CFU-GEMM (P4, T = 24 h after injection): 99 per ML
- Absolute # of Progenitors per ML, CFU-GM (P4, T = 24 h after injection): 208 per ML
- fold change from T=0, progenitors BFU-E, methylcellulose culture (P4, T = 24 h after injection): 0.79 fold
- fold change from T=0, progenitors CFU-GEMM, methylcellulose culture (P4, T = 24 h after injection): 0.98 fold
- fold change from T=0, progenitors CFU-GM, methylcellulose culture (P4, T = 24 h after injection): 1.51 fold
- Absolute # of Progenitors per ML, BFU-E (P5, T = 1 h after injection): 730 per ML
- Absolute # of Progenitors per ML, CFU-GEMM (P5, T = 1 h after injection): 169 per ML
- Absolute # of Progenitors per ML, CFU-GM (P5, T = 1 h after injection): 481 per ML
- fold change from T=0, progenitors BFU-E, methylcellulose culture (P5, T = 1 h after injection): 2.13 fold
- fold change from T=0, progenitors CFU-GEMM, methylcellulose culture (P5, T = 1 h after injection): 3.07 fold
- fold change from T=0, progenitors CFU-GM, methylcellulose culture (P5, T = 1 h after injection): 2.84 fold
- Absolute # of Progenitors per ML, BFU-E (P5, T = 3 h after injection): 1288 per ML
- Absolute # of Progenitors per ML, CFU-GEMM (P5, T = 3 h after injection): 244 per ML
- Absolute # of Progenitors per ML, CFU-GM (P5, T = 3 h after injection): 1423 per ML
- fold change from T=0, progenitors BFU-E, methylcellulose culture (P5, T = 3 h after injection): 3.75 fold
- fold change from T=0, progenitors CFU-GM, methylcellulose culture (P5, T = 3 h after injection): 8.40 fold
- Absolute # of Progenitors per ML, BFU-E (P5, T = 6 h after injection): 3208 per ML
- Absolute # of Progenitors per ML, CFU-GEMM (P5, T = 6 h after injection): 987 per ML
- Absolute # of Progenitors per ML, CFU-GM (P5, T = 6 h after injection): 3454 per ML
- fold change from T=0, progenitors BFU-E, methylcellulose culture (P5, T = 6 h after injection): 9.35 fold
- fold change from T=0, progenitors CFU-GEMM, methylcellulose culture (P5, T = 6 h after injection): 17.92 fold
- fold change from T=0, progenitors CFU-GM, methylcellulose culture (P5, T = 6 h after injection): 20.39 fold
- Absolute # of Progenitors per ML, BFU-E (P5, T = 9 h after injection): 1731 per ML
- Absolute # of Progenitors per ML, CFU-GEMM (P5, T = 9 h after injection): 526 per ML
- Absolute # of Progenitors per ML, CFU-GM (P5, T = 9 h after injection): 1710 per ML
- fold change from T=0, progenitors BFU-E, methylcellulose culture (P5, T = 9 h after injection): 5.05 fold
- fold change from T=0, progenitors CFU-GEMM, methylcellulose culture (P5, T = 9 h after injection): 9.55 fold
- fold change from T=0, progenitors CFU-GM, methylcellulose culture (P5, T = 9 h after injection): 10.09 fold
- Absolute # of Progenitors per ML, BFU-E (P5, T = 24 h after injection): 495 per ML
- Absolute # of Progenitors per ML, CFU-GEMM (P5, T = 24 h after injection): 124 per ML
- Absolute # of Progenitors per ML, CFU-GM (P5, T = 24 h after injection): 310 per ML
- fold change from T=0, progenitors BFU-E, methylcellulose culture (P5, T = 24 h after injection): 1.44 fold
- fold change from T=0, progenitors CFU-GEMM, methylcellulose culture (P5, T = 24 h after injection): 2.25 fold
- fold change from T=0, progenitors CFU-GM, methylcellulose culture (P5, T = 24 h after injection): 1.83 fold
- % CHG, BFU-E, methylcellulose culture (T = 1 h after injection): 98.9%
- % CHG, CFU-GEMM, methylcellulose culture (T = 1 h after injection): 131.8%
- % CHG, CFU-GM, methylcellulose culture (T = 1 h after injection): 376.7%
- mean fold change compared to T 0, BFU-E, methylcellulose culture, MEAN (T = 1 h after injection): 1.99 fold
- mean fold change compared to T 0, CFU-GEMM, methylcellulose culture, MEAN (T = 1 h after injection): 2.32 fold
- mean fold change compared to T 0, CFU-GM, methylcellulose culture, MEAN (T = 1 h after injection): 4.77 fold
- % CHG, BFU-E, methylcellulose culture (T = 3 h after injection): 221.3%
- % CHG, CFU-GEMM, methylcellulose culture (T = 3 h after injection): 332.5%
- % CHG, CFU-GM, methylcellulose culture (T = 3 h after injection): 1266.5%
- mean fold change compared to T 0, BFU-E, methylcellulose culture, MEAN (T = 3 h after injection): 3.21 fold
- mean fold change compared to T 0, CFU-GEMM, methylcellulose culture, MEAN (T = 3 h after injection): 4.33 fold
- mean fold change compared to T 0, CFU-GM, methylcellulose culture, MEAN (T = 3 h after injection): 13.66 fold
- % CHG, BFU-E, methylcellulose culture (T = 6 h after injection): 500.5%
- % CHG, CFU-GEMM, methylcellulose culture (T = 6 h after injection): 907.2%
- % CHG, CFU-GM, methylcellulose culture (T = 6 h after injection): 2070.6%
- mean fold change compared to T 0, BFU-E, methylcellulose culture, MEAN (T = 6 h after injection): 6.01 fold
- mean fold change compared to T 0, CFU-GEMM, methylcellulose culture, MEAN (T = 6 h after injection): 10.07 fold
- mean fold change compared to T 0, CFU-GM, methylcellulose culture, MEAN (T = 6 h after injection): 21.71 fold
- % CHG, BFU-E, methylcellulose culture (T = 9 h after injection): 334.4%
- % CHG, CFU-GEMM, methylcellulose culture (T = 9 h after injection): 425.4%
- % CHG, CFU-GM, methylcellulose culture (T = 9 h after injection): 947.3%
- mean fold change compared to T 0, BFU-E, methylcellulose culture, MEAN (T = 9 h after injection): 4.34 fold
- mean fold change compared to T 0, CFU-GEMM, methylcellulose culture, MEAN (T = 9 h after injection): 5.25 fold
- mean fold change compared to T 0, CFU-GM, methylcellulose culture, MEAN (T = 9 h after injection): 10.47 fold
- % CHG, BFU-E, methylcellulose culture (T = 24 h after injection): 26.3%
- % CHG, CFU-GEMM, methylcellulose culture (T = 24 h after injection): 53.2%
- % CHG, CFU-GM, methylcellulose culture (T = 24 h after injection): 55.5%
- mean fold change compared to T 0, BFU-E, methylcellulose culture, MEAN (T = 24 h after injection): 1.26 fold
- mean fold change compared to T 0, CFU-GEMM, methylcellulose culture, MEAN (T = 24 h after injection): 1.53 fold
- mean fold change compared to T 0, CFU-GM, methylcellulose culture, MEAN (T = 24 h after injection): 1.56 fold
